Measurements from patent publication US9650390B2, “Water-soluble taxane derivatives and uses thereof” (priority 2014, dated 2017).

Tests used:
[1] = In vitro dissociation in blood plasma of rat; format: in vitro ADME, SD rats; details: fresh SD rat plasma, 37° C.; for Sampling time/Dissociation percent (%) 2 min: 2 min incubation; for Sampling time/Dissociation percent (%) 5 min: 5 min incubation; for Sampling time/Dissociation percent (%) 10 min: 10 min incubation
Method: The obtained water soluble taxane derivatives of the following formulae were formulated as 0.2 mg/ml aqueous solutions. […] After 2 min, 5 min and 10 min of incubation, 0.2 ml of solutions were respectively taken from each of the samples, and added to acetonitrile (0.4 ml) cooled to −20° C. for precipitation of protein.

[2] = physiological saline
[3] = In vitro dissociation in blood plasma of rabbit; format: in vitro ADME, New Zealand white rabbits; details: fresh New Zealand white rabbit plasma, 37° C.
Method: The obtained water soluble taxane derivatives of the following formulae were formulated as 0.2 mg/ml aqueous solutions. […]

[4] = In vivo metabolic test of the water soluble paclitaxel derivatives in rats; details: SD rats, 5 mg/kg intravenous, 5 min after administration, LC-MS
Method: After 5 min of administration, 0.3 ml of venous blood was taken from the retrobulbar venous plexus of the rats, placed in heparinized tubes, and centrifuged at 11.000 rpm for 5 min. Blood plasma was separated, and the concentrations of the compounds in the blood plasma were determined by liquid chromatography-mass spectrometry.

[5] = tested on: human ovarian cancer SK-OV-3; details: 16 mg/kg, D0-4 IV
Description: Purpose: to evaluate and compare the inhibitory activity of the water soluble paclitaxel derivatives, paclitaxel and Abraxane® on subcutaneously xenografted tumor of human ovarian cancer SK-OV-3 in nude mice.
Human ovarian cancer SK-OV-3 cells were subcutaneously inoculated to nude mice. After the tumor volume reached 100-150 mm^3, the animals were randomly divided into groups (D0), and administered with the water soluble paclitaxel derivatives of the following formula, paclitaxel, and Abraxane®, respectively once per day for 5 days. The tumor volume was measured 2-3 times per week, the animals were weighed and the data were recorded until day 22 (D22) after grouping.
The tumor volume (V) was calculated according to the equation: V=½×a×b^2, wherein a and b represent the length and the width, respectively.
T/C (%)=(T−T0)/(C−C0)×100, wherein T and C represent the tumor volume at the end of the experiment, and T0 and C0 represent the tumor volume at the beginning of the experiment.

[6] = D22, SK-OV-3 xenograft in nude mice

| SMILES | Sampling time/Dissociation percent (%) 2 min [1] [%] | Sampling time/Dissociation percent (%) 5 min [1] [%] | Sampling time/Dissociation percent (%) 10 min [1] [%] | Solubility [2] [µg/mL] | Sampling time/Dissociation percent (%) 2 min [3] [%] | Sampling time/Dissociation percent (%) 5 min [3] [%] | Sampling time/Dissociation percent (%) 10 min [3] [%] | detection of the administered compound in the blood plasma [4] | mean concentration of paclitaxel in the blood plasma [4] [ng/mL] | Body weight change (%) D4 ([5]; D4, nude mice) [%] | T/C (%) D22 [5, 6] [%] | Tumor volume (mm^3) (D22) [5, 6] | Tumor inhibitory percent (%) D22 ([5]; D22, SK-OV-3 xenograft in nude mice, P = 0.000 vs control) [%] | Tumor volume (mm^3) (D0) ([5]; baseline at grouping (D0), SK-OV-3 xenograft in nude mice) |
| --- | --- | --- | --- | --- | --- | --- | --- | --- | --- | --- | --- | --- | --- | --- |
| CC(=O)O[C@@]12CO[C@@H]1CC[C@@]1(C)[C@@H]3O[C@H](CN(C)C)O[C@@H]3C3=C(C)[C@@H](OC(=O)[C@H](OC(=O)[C@H](F)CC(C)N(C)C)[C@@H](NC(=O)OC(C)(C)C)c4ncccc4F)C[C@@](O)([C@@H](OC(=O)c4ccccc4)[C@@H]12)C3(C)C.Cl (stereo partly drawn) [Compound C17, 2′-O-[4-N,N-dimethylamino-2(R)-fluorovaleryl]tesetaxel hydrochloride] | 60.7 | 95.5 | 100 | 1000 | 69.7 | 96.8 | 100 |  |  |  |  |  |  |  |
| CC(=O)O[C@H]1C(=O)[C@]23C[C@H]2C[C@H]2OC[C@@]2(OC(C)=O)[C@H]3[C@H](OC(=O)c2ccccc2)[C@]2(O)C[C@H](OC(=O)[C@H](OC(=O)[C@H](F)CC(C)N(C)C)[C@@H](NC(=O)OC(C)(C)C)c3ccccc3)C(C)=C1C2(C)C.Cl (stereo partly drawn) [Compound C16, 2′-O-[4-N,N-dimethylamino-2(R)-fluorovaleryl]larotaxel hydrochloride] | 61.1 | 93.8 | 100 | 800 | 68.2 | 94.4 | 100 |  |  |  |  |  |  |  |
| CC(=O)O[C@@]12CO[C@@H]1C[C@H](O)[C@@]1(C)C(=O)[C@H](O)C3=C(C)[C@@H](OC(=O)[C@H](OC(=O)[C@H](F)CC(C)N(C)C)[C@@H](NC(=O)OC(C)(C)C)c4ccccc4)C[C@@](O)([C@@H](OC(=O)c4ccccc4)[C@H]21)C3(C)C.Cl (stereo partly drawn) [Compound C13, 2′-O-[4-N,N-dimethylamino-2(R)-fluorovaleryl]docetaxel hydrochloride] | 44.8 | 84.8 | 92.7 | 2300 | 46.2 | 78.9 | 93.4 |  |  |  |  |  |  |  |
| CC(=O)OC1C(=O)C23CC2CC2OCC2(OC(C)=O)C3C(OC(=O)c2ccccc2)C2(O)CC(OC(=O)C(OC(=O)C(F)CC(C)N(C)C)C(NC(=O)OC(C)(C)C)c3ccccc3)C(C)=C1C2(C)C.CS(=O)(=O)O [Compound 16, 2′-O-[4-N,N-dimethylamino-2(R)-fluorovaleryl]larotaxel methanesulfonate] | 60.2 | 92.1 | 100 | 11100 | 63.2 | 94.1 | 100 |  |  |  |  |  |  |  |
| CC(=O)O[C@H]1C(=O)[C@@]2(C)[C@H]([C@H](OC(=O)c3ccccc3)[C@]3(O)C[C@H](OC(=O)[C@H](OC(=O)[C@H](F)CCN(C)C)[C@@H](NC(=O)c4ccccc4)c4ccccc4)C(C)=C1C3(C)C)[C@]1(OC(C)=O)CO[C@@H]1C[C@@H]2O.Cl [Compound 01, 2′-O-[4-N,N-dimethylamino-2(R)-fluorobutyryl]paclitaxel hydrochloride] | 63.5 | 96.8 | 100 |  | 76.5 | 98.3 | 100 | cannot be detected |  |  |  |  |  |  |
| CC(=O)O[C@H]1C(=O)[C@@]2(C)[C@H]([C@H](OC(=O)c3ccccc3)[C@]3(O)C[C@H](OC(=O)[C@H](O)[C@@H](NC(=O)c4ccccc4)c4ccccc4)C(C)=C1C3(C)C)[C@]1(OC(C)=O)CO[C@@H]1C[C@@H]2O [paclitaxel, reference compound] |  |  |  |  |  |  |  |  | 1793 | −4.8 | −60 | 53.7 ± 11.2 | 160 | 134.6 ± 19.7 |
| CCN(C)C(C)C[C@H](C(=O)O[C@@H](C(=O)O[C@H]1C[C@@]2(O)[C@@H](OC(=O)c3ccccc3)[C@@H]3[C@]4(OC(C)=O)CO[C@@H]4C[C@H](O)[C@@]3(C)C(=O)[C@H](O)C(=C1C)C2(C)C)[C@@H](NC(=O)OC(C)(C)C)c1ccccc1)C(C)(F)F.CS(=O)(=O)O (stereo partly drawn) [Compound C12, 2′-O-[4-N-methyl-N-ethylamino-2(R)-2-difluoroethylvaleryl]docetaxel methanesulfonate] | 42.8 | 74.8 | 88.4 | 11300 | 44.6 | 72.1 | 89.6 |  |  |  |  |  |  |  |
| CC(=O)OC12COC1CCC1(C)C3OC(CN(C)C)OC3C3=C(C)C(OC(=O)C(OC(=O)C(F)CC(C)N(C)C)C(NC(=O)OC(C)(C)C)c4ncccc4F)CC(O)(C(OC(=O)c4ccccc4)C12)C3(C)C.CS(=O)(=O)O [Compound 17, 2′-O-[4-N,N-dimethylamino-2(R)-fluorovaleryl]tesetaxel methanesulfonate] | 59.3 | 93.5 | 100 | 12300 | 62.7 | 93.4 | 100 |  |  |  |  |  |  |  |
